What was measured:
SMARCA2 = biological target: T1, SMARCA2 (Homo sapiens, UniProt P51531); test: SMARCA2 Cellular Degradation Assay (Western blot analysis on Jess platform); format: cell-based; settings: for DC50 / Dmax: cellular degradation; for Fold Selectivity SMARCA4/2: ratio DC50 SMARCA4 / DC50 SMARCA2
T1 construct: endogenous in cells
Description: SMARCA2 Cellular Degradation Assay
Western Blot Analysis for SMARCA2 Degradation
Frozen cell pellets were thawed on ice and resuspended in RIPA lysis buffer (Millipore, Cat. No. 20-188) supplemented with 0.2% SDS (Fisher Scientific, Cat. No. 24730020), 200 mM β-glycerophosphate (Alfa Aesar, Cat. No. J62121), 500 mM NaF (Rigaku, Cat. No. 1008046), protease inhibitor (1 tablet per 10 mL, Sigma, Cat. No. 11836170001), 250 U/μL benzonase (Millipore, Cat. No. 71206), 200 mM sodium orthovanadate (FivePhoton, Cat. No. ActVO-4), and 100 mM PMSF (Sigma, Cat. No. 10837091001). 50 μL lysis buffer was used to lyse each pellet containing 5×10E5-1×10E6 live cells extracted from tumors. Lysates were centrifuged for 10 mins at 20,817×g and lysate supernatants were saved for further analysis. Protein levels were determined by the BCA Assay performed according to manufacturer's protocol (EMD Millipore, Cat. No. 71285-3). Samples were evaluated by Western blot analysis on the Jess Platform (ProteinSimple). Lysates were diluted with complete lysis buffer (as described above) and 5 μg of total proteins were loaded onto each capillary. Samples were prepared using the ProteinSimple EZ Standard Pack 1 (Cat. No. PS-ST01EZ-8; containing tubes with powdered (5×) Fluorescent Master Mix, DTT, and biotinylated ladder) and run using the ProteinSimple 25-Capillary Cartridge kit (Cat. No. SM-W004; containing 25-capillary cartridge Wash reagent, and 10× Sample Buffer reagent), the ProteinSimple Anti-Rabbit HRP Detection Module for Jess (Cat. No. DM-001; containing Antibody Diluent, anti-rabbit secondary antibody, Luminol-S, Peroxide, and Streptavidin-HRP), and the ProteinSimple Anti-Mouse NIR Detection Module for Jess (Cat. No. DM-009; containing Antibody Diluent, anti-mouse NIR secondary antibody, and Streptavidin-NIR) as the following describes. The DTT was reconstituted with 40 μL water to make a 400 mM solution, 20 μL of the DTT solution plus 20 μL of 10× Sample Buffer were added to reconstitute the 5× Fluorescent Master Mix, and 20 μL of H2O was used to reconstitute the biotinylated ladder. For each sample, lysate (4 μL) was combined with 5× Fluorescent Master Mix (1 μL) and heated at 95° C. for 5 minutes. Samples were cooled and stored on ice. Primary antibody solution was made using anti-SMARCA2 antibody (Abcam, Cat. No. 240648, 1:10) and anti-beta-Actin antibody (Cell Signaling Technology, Cat. No. 3700S, 1:25) in antibody diluent. The 25-capillary cartridges were prepared per standard ProteinSimple protocol with each sample in a column. For the biotinylated ladder in column 1, the following were added: 5 µL of ladder sample in Row A, 10 μL of antibody diluent in Rows B and C, 10 μL of Streptavidin-NIR in Row D, and 15 μL of a 50:50 Luminol-s/Peroxide solution in Row E. For each test sample (columns 2-25), the following were added per column: 5 μL of sample in Row A, 10 μL of antibody diluent in Row B, 10 μL of primary antibody solution in Row C, 10 μL of secondary antibody in Row D, and 15 μL of a 50:50 Luminol-S/Peroxide solution in Row E. 500 μL wash buffer was added to the wash buffer wells in the cartridge and cartridge was spun at 1000×g for 5 minutes prior to loading into the Jess. Samples were run using the Chemiluminescence and Fluorescence immunoassays in the ProteinSimple Compass for SimpleWestern program (version 5.0.0). After running, SMARCA2, actin, and background curves were identified in the Compass software; note that in the Compass software, the electropherograms are also visualized as bands for comparison with standard Western blot outputs. The electropherogram area reading for each sample curve was normalized to that of the corresponding actin curve per column following background (capillary background) subtraction using the following equation: […]
Following normalization, the percentage of SMARCA2 remaining per sample relative to the vehicle control was calculated as follows: […]

SMARCA4 = biological target: T2, SMARCA4 (Homo sapiens, UniProt P51532); test: Cellular degradation assay, SMARCA4 (Table 1); format: cell-based
T2 construct: endogenous in cells
T2 sequence (P51532 whole entry, species assumed): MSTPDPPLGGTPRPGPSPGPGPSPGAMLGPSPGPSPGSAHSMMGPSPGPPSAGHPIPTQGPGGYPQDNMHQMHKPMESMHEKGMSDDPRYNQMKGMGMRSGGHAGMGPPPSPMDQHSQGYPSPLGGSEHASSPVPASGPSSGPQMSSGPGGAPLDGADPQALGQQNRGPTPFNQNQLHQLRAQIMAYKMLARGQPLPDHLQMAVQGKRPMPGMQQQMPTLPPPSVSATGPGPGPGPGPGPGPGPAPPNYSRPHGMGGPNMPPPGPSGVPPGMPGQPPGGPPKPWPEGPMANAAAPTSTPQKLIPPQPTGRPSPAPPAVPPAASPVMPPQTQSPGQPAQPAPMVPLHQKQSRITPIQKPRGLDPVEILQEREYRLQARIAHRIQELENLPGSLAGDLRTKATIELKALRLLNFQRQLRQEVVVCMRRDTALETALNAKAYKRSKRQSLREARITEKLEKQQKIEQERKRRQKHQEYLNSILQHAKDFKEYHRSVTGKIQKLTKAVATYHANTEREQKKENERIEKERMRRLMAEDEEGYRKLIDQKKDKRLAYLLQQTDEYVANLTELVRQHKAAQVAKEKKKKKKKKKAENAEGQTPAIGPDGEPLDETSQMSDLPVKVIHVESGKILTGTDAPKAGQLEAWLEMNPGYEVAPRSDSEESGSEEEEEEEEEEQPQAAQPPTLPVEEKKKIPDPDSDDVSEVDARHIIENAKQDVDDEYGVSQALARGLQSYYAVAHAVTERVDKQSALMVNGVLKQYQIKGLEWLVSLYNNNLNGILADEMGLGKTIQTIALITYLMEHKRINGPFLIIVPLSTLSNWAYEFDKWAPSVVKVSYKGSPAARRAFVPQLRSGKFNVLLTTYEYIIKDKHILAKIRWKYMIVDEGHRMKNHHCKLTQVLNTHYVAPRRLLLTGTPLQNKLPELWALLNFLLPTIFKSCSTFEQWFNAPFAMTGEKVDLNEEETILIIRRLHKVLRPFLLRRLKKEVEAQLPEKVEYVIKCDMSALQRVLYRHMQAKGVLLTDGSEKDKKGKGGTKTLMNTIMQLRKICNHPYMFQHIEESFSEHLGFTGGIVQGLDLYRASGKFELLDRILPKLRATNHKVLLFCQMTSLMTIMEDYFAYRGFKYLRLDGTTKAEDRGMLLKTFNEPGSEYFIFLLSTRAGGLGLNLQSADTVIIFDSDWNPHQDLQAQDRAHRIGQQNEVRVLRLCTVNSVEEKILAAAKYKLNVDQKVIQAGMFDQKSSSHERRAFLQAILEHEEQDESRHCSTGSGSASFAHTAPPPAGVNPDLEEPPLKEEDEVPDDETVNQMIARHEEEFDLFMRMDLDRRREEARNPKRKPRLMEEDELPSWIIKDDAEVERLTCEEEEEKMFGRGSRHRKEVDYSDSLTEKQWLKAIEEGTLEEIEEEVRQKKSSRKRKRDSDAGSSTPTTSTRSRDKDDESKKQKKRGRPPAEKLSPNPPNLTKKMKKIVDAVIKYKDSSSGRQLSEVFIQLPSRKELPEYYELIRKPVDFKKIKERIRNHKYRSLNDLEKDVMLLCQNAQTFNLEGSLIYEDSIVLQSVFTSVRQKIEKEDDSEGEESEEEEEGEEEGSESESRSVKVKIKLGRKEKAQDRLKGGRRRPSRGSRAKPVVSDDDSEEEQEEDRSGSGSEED

T1 sequence (P51531 whole entry, species assumed): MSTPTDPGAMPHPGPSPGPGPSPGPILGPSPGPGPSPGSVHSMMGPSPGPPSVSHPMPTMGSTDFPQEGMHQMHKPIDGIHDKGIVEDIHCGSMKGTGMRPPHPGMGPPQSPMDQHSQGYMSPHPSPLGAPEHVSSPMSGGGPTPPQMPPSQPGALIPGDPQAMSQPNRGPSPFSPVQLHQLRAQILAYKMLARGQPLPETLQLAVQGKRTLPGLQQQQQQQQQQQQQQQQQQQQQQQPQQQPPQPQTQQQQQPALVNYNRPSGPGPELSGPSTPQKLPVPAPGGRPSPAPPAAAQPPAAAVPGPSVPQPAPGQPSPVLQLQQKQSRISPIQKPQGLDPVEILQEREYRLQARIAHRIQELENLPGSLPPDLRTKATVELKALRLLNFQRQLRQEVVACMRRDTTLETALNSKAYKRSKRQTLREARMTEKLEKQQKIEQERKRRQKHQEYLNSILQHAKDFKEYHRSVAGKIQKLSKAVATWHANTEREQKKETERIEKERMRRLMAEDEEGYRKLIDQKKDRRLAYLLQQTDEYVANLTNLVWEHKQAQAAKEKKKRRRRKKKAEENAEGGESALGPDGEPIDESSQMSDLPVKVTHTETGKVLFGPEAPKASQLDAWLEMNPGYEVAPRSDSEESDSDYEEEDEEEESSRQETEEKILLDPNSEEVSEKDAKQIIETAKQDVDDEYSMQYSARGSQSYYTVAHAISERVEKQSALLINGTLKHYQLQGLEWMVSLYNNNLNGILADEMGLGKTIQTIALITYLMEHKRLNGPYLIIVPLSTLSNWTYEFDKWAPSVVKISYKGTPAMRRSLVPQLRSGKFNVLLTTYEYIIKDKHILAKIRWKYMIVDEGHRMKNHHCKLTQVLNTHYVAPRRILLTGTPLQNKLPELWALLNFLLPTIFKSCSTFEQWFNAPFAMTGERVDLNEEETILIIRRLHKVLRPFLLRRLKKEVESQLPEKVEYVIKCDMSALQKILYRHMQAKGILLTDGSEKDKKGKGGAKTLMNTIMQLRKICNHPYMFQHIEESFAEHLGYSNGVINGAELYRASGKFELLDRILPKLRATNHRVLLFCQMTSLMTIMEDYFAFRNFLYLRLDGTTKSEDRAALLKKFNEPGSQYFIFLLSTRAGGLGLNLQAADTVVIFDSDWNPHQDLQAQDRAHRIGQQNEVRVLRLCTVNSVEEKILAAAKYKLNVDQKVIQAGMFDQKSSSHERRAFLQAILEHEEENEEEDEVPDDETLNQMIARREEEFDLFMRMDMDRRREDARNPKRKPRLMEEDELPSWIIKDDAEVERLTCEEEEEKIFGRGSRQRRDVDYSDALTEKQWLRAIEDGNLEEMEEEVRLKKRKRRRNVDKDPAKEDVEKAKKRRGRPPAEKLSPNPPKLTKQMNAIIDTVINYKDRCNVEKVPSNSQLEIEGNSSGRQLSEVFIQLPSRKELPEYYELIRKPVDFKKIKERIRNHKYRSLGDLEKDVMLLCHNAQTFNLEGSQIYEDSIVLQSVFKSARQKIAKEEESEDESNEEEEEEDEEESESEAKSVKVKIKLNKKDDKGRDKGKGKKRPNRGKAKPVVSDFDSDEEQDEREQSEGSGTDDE

Row | DC50 (SMARCA2) | Dmax (SMARCA2) | Fold Selectivity SMARCA4/2 (SMARCA2) | Dmax (SMARCA4) | DC50 (SMARCA4) | Structure (SMILES)
1 | 11.9 nM | 72.8% | 842 | 26% | – | CC(C)c1cc(C2(C(=O)N(C)C3CCN(C4COC5(CCN(c6ccc([C@H]7CCC(=O)NC7=O)cc6)CC5)C4)CC3)CCN(c3cnnc(-c4ccccc4O)c3)CC2)no1 (mixture of isomers) [Example 59, N-{1-[(3RS)-8-{4-[(3R)-2,6-dioxopiperidin-3-yl]phenyl}-1-oxa-8-azaspiro[4.5]decan-3-yl]piperidin-4-yl}-1-[6-(2-hydroxyphenyl)pyridazin-4-yl]-N-methyl-4-[5-(propan-2-yl)-1,2-oxazol-3-yl]piperidine-4-carboxamide]
2 | 3.79 nM | 85.7% | 2639 | 35.7% | – | Cc1cc(C2(C(=O)N(C)C3CCN(CCC4CCN(c5ccc(C6CCC(=O)NC6=O)c(F)c5)CC4)CC3)CCN(c3cnnc(-c4ccccc4O)c3)CC2)on1 (racemic) [Example 60, rac-N-{1-[2-(1-{4-[(3R)-2,6-dioxopiperidin-3-yl]-3-fluorophenyl}piperidin-4-yl)ethyl]piperidin-4-yl}-1-[6-(2-hydroxyphenyl)pyridazin-4-yl]-N-methyl-4-(3-methyl-1,2-oxazol-5-yl)piperidine-4-carboxamide]
3 | 0.18 nM | 96.7% | 19 | 86.8% | 3.49 nM | Cc1ccnn1C1(C(=O)N(C)C2CCN(CCC3CCN(c4cccc5c4n(C)c(=O)n5C4CCC(=O)NC4=O)CC3)CC2)CCN(c2cnnc(-c3ccccc3O)c2)CC1 (racemic) [Example 61, rac-N-{1-[2-(1-{1-[(3R)-2,6-dioxopiperidin-3-yl]-3-methyl-2-oxo-2,3-dihydro-1H-1,3-benzodiazol-4-yl}piperidin-4-yl)ethyl]piperidin-4-yl}-1-[6-(2-hydroxyphenyl)pyridazin-4-yl]-n-methyl-4-(5-methyl-1H-pyrazol-1-yl)piperidine-4-carboxamide]
4 | 0.25 nM | 93.2% | 602 | 52.3% | 151 nM | CN(C(=O)C1(c2ccnn2C)CCN(c2cnnc(-c3ccccc3O)c2)CC1)C1CCN(CCC2CCN(c3cccc4c3n(C)c(=O)n4C3CCC(=O)NC3=O)CC2)CC1 (racemic) [Example 62, rac-N-{1-[2-(1-{1-[(3R)-2,6-dioxopiperidin-3-yl]-3-methyl-2-oxo-2,3-dihydro-1H-1,3-benzodiazol-4-yl}piperidin-4-yl)ethyl]piperidin-4-yl}-1-[6-(2-hydroxyphenyl)pyridazin-4-yl]-N-methyl-4-(1-methyl-1H-pyrazol-5-yl)piperidine-4-carboxamide]
5 | 8.77 nM | 80.5% | 1140 | 32.2% | – | Cc1ccnn1C1(C(=O)N(C)C2CCN(C3COC4(CCN(c5ccc([C@H]6CCC(=O)NC6=O)cc5)CC4)C3)CC2)CCN(c2cnnc(-c3ccccc3O)c2)CC1 (mixture of isomers) [Example 63, N-{1-[(3RS)-8-{4-[(3R)-2,6-dioxopiperidin-3-yl]phenyl}-1-oxa-8-azaspiro[4.5]decan-3-yl]piperidin-4-yl}-1-[6-(2-hydroxyphenyl)pyridazin-4-yl]-n-methyl-4-(5-methyl-1H-pyrazol-1-yl)piperidine-4-carboxamide]
6 | 5.51 nM | 81.3% | 1815 | 30.4% | – | CN(C(=O)C1(c2cnn(C)c2)CCN(c2cnnc(-c3ccccc3O)c2)CC1)C1CCN(C2COC3(CCN(c4ccc([C@H]5CCC(=O)NC5=O)cc4)CC3)C2)CC1 (mixture of isomers) [Example 64, N-{1-[(3RS)-8-{4-[(3R)-2,6-dioxopiperidin-3-yl]phenyl}-1-oxa-8-azaspiro[4.5]decan-3-yl]piperidin-4-yl}-1-[6-(2-hydroxyphenyl)pyridazin-4-yl]-n-methyl-4-(1-methyl-1H-pyrazol-4-yl)piperidine-4-carboxamide]

— patent publication US20250051344A1, “BIFUNCTIONAL SELECTIVE DEGRADERS OF SMARCA2 AND THERAPEUTIC USES THEREOF” (Nurix Therapeutics, Inc., priority 2023, published 2025)
